Data on one molecule can be found in patent US20090082322A1, “Gender Differences in Experimental Aortic Aneurysm Formation” (THE REGENTS OF THE UNIVERSITY OF MICHIGAN, priority 2004, published 2009).

Data set [1] concerns ED-1-positive macrophages / elastin in aortic wall. Put plainly: Histology and ED-1 macrophage immunohistochemistry of elastase-perfused aortas. Format: in vivo, Sprague-Dawley rats. From the text: In other experiments, male rats were randomized to implantation of an estrogen pellet or sham implantation (n=13, each). The former involved the subcutaneous implantation of a 21-day slow-release 0.1-mg 17-β-estradiol pellet (Innovative Research of America, Sarasota, Fla.) in the posterior neck. Sham rats underwent the same implantation procedure without insertion of any pellet. This particular estradiol dose results in serum estradiol levels at 2 to 3 weeks of 44.7±6.1 pg/mL compared with 15.0±2.2 pg/mL in control rats (P<0.05). Rat aortas from both groups were subjected to elastase perfusion 5 days later. The aortas were then removed for study 7 or 14 days after elastase perfusion. All excised aortas were fixed in 10% formalin for 18 hours, followed by immersion in 70% ethanol for 24 hours. Aortas were then imbedded in paraffin and 4-μm sections were prepared with hematoxylin and eosin and Verhoeff-Van Gieson stains. Immunohistochemistry was undertaken after deparaffinization, rehydration, and unmasking using Trilogy (Cell Marque Corp, Hot Springs, Ariz.) in a Princess model pressure cooker (Cell Marque). Endogenous peroxidase activity was then blocked using 3% hydrogen peroxide in methanol. To help ensure that rejection was not occurring in elastase-perfused or transplanted animals, anti-T lymphocyte immunohistochemistry was performed. […]

Another data set has as its system MMP-9. As to the kind of experiment: Aortic MMP-9 immunohistochemistry, ED-1 colocalization and quantitative PCR. The format is in vivo, Sprague-Dawley rats. From the text:
(§1) In other experiments, male rats were randomized to implantation of an estrogen pellet or sham implantation (n=13, each). The former involved the subcutaneous implantation of a 21-day slow-release 0.1-mg 17-β-estradiol pellet (Innovative Research of America, Sarasota, Fla.) in the posterior neck. Sham rats underwent the same implantation procedure without insertion of any pellet. This particular estradiol dose results in serum estradiol levels at 2 to 3 weeks of 44.7±6.1 pg/mL compared with 15.0±2.2 pg/mL in control rats (P<0.05). Rat aortas from both groups were subjected to elastase perfusion 5 days later. The aortas were then removed for study 7 or 14 days after elastase perfusion.
Immunohistochemistry was undertaken after deparaffinization, rehydration, and unmasking using Trilogy (Cell Marque Corp, Hot Springs, Ariz.) in a Princess model pressure cooker (Cell Marque). Endogenous peroxidase activity was then blocked using 3% hydrogen peroxide in methanol. To help ensure that rejection was not occurring in elastase-perfused or transplanted animals, anti-T lymphocyte immunohistochemistry was performed. Specifically, antirat CD3 monoclonal antibody (BD Pharmingen, San Diego, Calif.) was used as the primary antibody and mouse IgG Vectastain (Vector Laboratories, Burlingame, Calif.) as the secondary antibody. Rat spleen was used as the positive control for anti-CD3 staining. […]
Expression of MMP-9 and β-actin mRNA was determined using quantitative PCR. […] The resultant cDNA was amplified by Taq Polymerase (Promega, Madison, Wis.) in a SmartCycler quantitative PCR system (Cepheid, Sunnyvale, Calif.). […]
MMP-9 forward primer, CGCCAACTATGACCAGGATA (SEQ ID NO: 1); MMP-9 reverse primer, GTT GCC CCC AGT TAC AGT (SEQ ID NO: 2); β-actin forward primer, ATGGGTCAGAAGGATTCCTATGTG (SEQ ID NO: 3); β-actin reverse primer, CTTCATGAGGTAGTCAGTCAGGTC (SEQ ID NO: 4). […] Quantification of mRNA levels used ΔCt values, calculated by the formula: […]
Expression of the target gene in ratio to β-actin expression was calculated by the formula: […]

Data set [2] can be described thus: Serum estradiol levels after pellet implantation. The format is in vivo. The conditions noted are these: at 2 to 3 weeks, 21-day slow-release 0.1-mg pellet s.c.; control rats 15.0±2.2.
Description: as §1
Male Sprague-Dawley rats (190 g to 210 g) were obtained from Charles River Laboratories. Subcutaneous neck implantation of a 21-day slow release 0.1 mg 17-β-estradiol pellet (Innovative Research of America) was performed under general inhalational anesthesia. This particular estradiol dose results in serum estradiol levels at 2 to 3 weeks of 44.7±6.1 pg/mL compared with 15.0±2.2 pg/mL in control rats (p<0.05). Three weeks after pellet implantation, the infrarenal aorta was explanted under general anesthesia. The aorta was briefly rinsed free of blood and debris with cold 1×PBS containing antibiotics, cut into 1-mm rings, and incubated for 48 hours in 1 mL of serum-free DMEM containing antibiotics and IL-1β. […]

Regarding `C[C@]12CC[C@@H]3c4ccc(O)cc4CC[C@H]3[C@@H]1CC[C@@H]2O` [17-β-estradiol], the elastin fragmentation result in data set [1] (estradiol treated male rats' aortas vs sham) is “less prominent”. In data set [1] (male rats receiving estradiol, sham 5.2±0.5, P=0.0006), this molecule came in with an ED-1-positive cell counts of 1.8±0.3 cells/HPF. The “aortic MMP-9 staining” value in the data set on MMP-9 (immunohistochemistry, estradiol treated rats compared with sham rats) was “less evident”. Moreover, the “aortic MMP-9 mRNA expression” value with MMP-9 (quantitative PCR normalized to β-actin, 7 days after elastase perfusion, sham 0.12±0.04, P=0.11) was 0.0017±0.004 mRNA copies. In addition, the “colocalization of aortic ED-1 and MMP-9” value in the data set with MMP-9 (rats treated with estradiol compared with sham rats) is “less prominently stained cells”. The molecule also showed a serum estradiol levels in data set [2] of 44.7 ± 6.1 pg/mL.
